Values joined by “and” are separate entries in the source; they are usually repeats but may differ in a detail not shown here. Equal values may be shown once.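 Assay format: 96-well plates, 48-hour exposure. GI50 is the concentration that inhibits growth by half. TGI marks complete inhibition of growth.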
How the values were obtained:
Assay in all cases: NCI-60 cell line screen, 48 h
[1] = test system: BT-549 breast
[2] = test system: CCRF-CEM leukemia
[3] = test system: DU-145 prostate
[4] = test system: HCT-15 colon
[5] = test system: NCI-H460 lung
[6] = test system: RXF 393 renal
[7] = test system: SK-MEL-2 melanoma
[8] = test system: SN12C renal
[9] = test system: UACC-257 melanoma
[10] = test system: UACC-62 melanoma

SMILES	GI50 [1]	TGI [1]	GI50 [2]	TGI [2]	GI50 [3]	TGI [3]	GI50 [4]	TGI [4]	GI50 [5]	TGI [5]	GI50 [6]	TGI [6]	GI50 [7]	TGI [7]	GI50 [8]	TGI [8]	GI50 [9]	TGI [9]	GI50 [10]	TGI [10]
CC(C)=CCc1cc(O)cc2c1OC(C=C(C)C)C1=C2C(=O)C2=C(NCCS2(=O)=O)C1=O (stereo not given)	2.87 µM	5.23 µM	4.05 µM	> 16.7 µM	2.18 µM	4.31 µM	2.74 µM	6.46 µM	1.2 µM	4.28 µM	2.15 µM	4.7 µM	2.85 µM	7.13 µM	0.414 µM	2.02 µM	2.3 µM	4.61 µM	0.875 µM	3.5 µM
CS(=O)(=O)CCCn1c(=O)c(Oc2ccc(F)cc2F)cc2cnc(NC3CCOCC3)nc21	> 25 µM	> 25 µM	> 25 µM	> 25 µM	> 25 µM	> 25 µM	> 25 µM	> 25 µM	> 25 µM	> 25 µM	> 25 µM	> 25 µM	> 25 µM	> 25 µM	> 25 µM	> 25 µM	> 25 µM	> 25 µM	> 25 µM	> 25 µM
CC(=O)c1cc2c(o1)C(=O)c1ccccc1C2=O	0.164 µM and 0.161 µM	0.312 µM and 0.304 µM	0.403 µM and 1.02 µM	> 100 µM	0.174 µM and 0.186 µM	0.32 µM and 0.331 µM	0.166 µM and 0.179 µM	0.365 µM and 0.398 µM	0.21 µM and 0.194 µM	0.422 µM and 0.375 µM	0.239 µM and 0.249 µM	0.563 µM and 0.634 µM	0.42 µM and 0.548 µM	1.29 µM and 2 µM	0.177 µM	0.346 µM	0.191 µM and 0.197 µM	0.37 µM and 0.451 µM	0.229 µM and 0.178 µM	0.476 µM and 0.335 µM
Cc1csc(Nc2nc(-c3cccc(Br)c3)nc(C(Cl)(Cl)Cl)n2)n1	> 100 µM	> 100 µM	> 100 µM	> 100 µM	0.419 µM	3.21 µM	4.95 µM	> 100 µM	1.16 µM	3.53 µM	1 µM	4.04 µM	> 100 µM	> 100 µM	–	–	3.34 µM	> 100 µM	3.35 µM	> 100 µM
O=c1[nH]c(=O)n(C2CC(O)C(CO)O2)cc1CO (stereo not given)	> 100 µM	> 100 µM	> 100 µM	> 100 µM	> 100 µM	> 100 µM	> 100 µM	> 100 µM	37.1 µM	> 100 µM	> 100 µM	> 100 µM	> 100 µM	> 100 µM	91.7 µM	> 100 µM	> 100 µM	> 100 µM	> 100 µM	> 100 µM
CC(CC(=O)O)C(C(=O)O)C(=O)O (stereo not given)	–	> 100 µM	–	> 100 µM	–	> 100 µM	–	> 100 µM	–	> 100 µM	–	> 100 µM	–	> 100 µM	–	> 100 µM	–	> 100 µM	–	> 100 µM
O=c1cc2oc3cc(O)c(O)cc3c(-c3ccccc3O)c-2cc1O	14.4 µM	40.3 µM	7.29 µM	> 100 µM	22.8 µM	> 100 µM	38.3 µM	> 100 µM	21.5 µM	82.6 µM	6.5 µM	> 100 µM	36.8 µM	> 100 µM	10.7 µM	> 100 µM	20.4 µM	> 100 µM	6.25 µM	86 µM
N=c1ccn2c(n1)OC1C(O)C(CO)OC12 (stereo not given)	> 100 µM	> 1000 µM	0.102 µM and 0.0335 µM	92.2 µM	2.53 µM and 0.886 µM	> 1000 µM	–	> 1000 µM	0.242 µM	168 µM and > 100 µM	> 25.1 µM	> 1000 µM	> 100 µM	> 1000 µM	3.13 µM	> 621 µM	> 100 µM	> 1000 µM	1.55 µM	212 µM and > 100 µM
N#C/C=C(\c1ccc([N+](=O)[O-])cc1)n1nnc2cc(Cl)c(Cl)cc21	1.77 µM	3.77 µM	2.31 µM	29.4 µM	1.65 µM	3.3 µM	1.85 µM	5.36 µM	2.36 µM	6.98 µM	1.82 µM	3.77 µM	2.56 µM	6.42 µM	2.08 µM	5.4 µM	2.06 µM	4.53 µM	1.77 µM	3.95 µM
O=C(c1ccc(F)c(F)c1Nc1ccc(I)cc1F)N1CC(O)([C@@H]2CCCCN2)C1	7.52 µM and > 6.99 µM	22 µM and > 10 µM	10.2 µM and > 10 µM	26.7 µM and > 10 µM	3.32 µM and 3.18 µM	19.9 µM and > 10 µM	1.22 µM and 1.92 µM	16.8 µM and > 10 µM	2.92 µM and 2.42 µM	17.9 µM and > 10 µM	0.743 µM and 0.396 µM	7.17 µM and > 6.97 µM	< 0.013 µM and 0.0327 µM	< 0.0268 µM	2.03 µM and 1.14 µM	18.7 µM and > 10 µM	< 0.01 µM and 0.00413 µM	0.0368 µM and 0.0363 µM	< 0.01 µM and 0.00339 µM	< 0.0158 µM and 0.0384 µM
Cc1nc2cnc(N)c(C#Cc3cncc(C(=O)Nc4ccc(CN5CCN(C)CC5)c(C(F)(F)F)c4)c3)c2nc1C	2 µM	11.8 µM	2.12 µM	16.7 µM	0.409 µM	11.2 µM	0.912 µM	10.9 µM	0.478 µM	11.7 µM	0.515 µM	1.93 µM	0.187 µM	0.817 µM	0.381 µM	11.8 µM	0.189 µM	1.74 µM	0.116 µM	1.07 µM
COc1cccc2c1C(=O)c1c(O)c3c(c(O)c1C2=O)CC(O)(/C(C)=N/NC(=O)CCC(=O)N/N=C(\C)C1(O)Cc2c(O)c4c(c(O)c2C(OC2CC(N)C(O)C(C)O2)C1)C(=O)c1c(OC)cccc1C4=O)CC3OC1CC(N)C(O)C(C)O1 (stereo not given)	0.671 µM	2.27 µM	0.113 µM	7.17 µM	0.302 µM	2.97 µM	3.51 µM	> 50 µM	0.0981 µM	0.947 µM	0.376 µM	1.35 µM	0.111 µM	0.343 µM	0.234 µM	> 50 µM	0.781 µM	3.28 µM	–	–
